Series [1] deals with Purified pig DAAO (Sus scrofa, UniProt P00371). Kind of series: In vitro measurements of DAAO activity (Amplex Red H2O2 fluorescence; alternative phenylglycine absorbance assay). It counts as biochemical. Particulars: read-out: Inhibition of DAAO, IC50. As to the method:
Purified pig DAAO, added to a buffered mixture of 50 mM D-Serine produces H202 in stoichiometric amounts for each D-Serine molecule oxidized. H202 production can be monitored with a commercially available dye Amplex Red, which in the presence of H202, is converted to the fluorescent product resorufin. For each described inhibitor, the fluorescence was also measured during additions of 80 μM H202 in the absence of DAAO, to control for artifactual inhibition of the dye conversion, and to quantify the amount of H202 produced. In an alternative assay of DAAO activity, the purified pig DAAO is added to buffered mixture of 1 mM phenylglycine in the presence of compounds. The activity of DAAO is monitored spectrophotometrically by its enzymatic conversion of phenylglycine to benzoylformic acid with optical absorption at 252 nm.
Inhibitors of DAAO's enzymatic cycle were serially diluted to reduce the level of inhibition. The parameters of a non-linear equation were adjusted to fit the resulting series of inhibition levels to extrapolate the concentration of compound where 50% inhibition is achieved (IC50). These numbers are averaged for the number (n) of independent measurements (on separate days) of the inhibition.

Series [2] has as its target T1, D-Serine's binding site on the NMDA receptor (Rattus norvegicus, UniProt P35439).
T1 construct: membranes prepared from rat cerebral cortex; from tissue; host or cells: rat cerebral cortex membranes
Kind of series: NMDA receptor affinity, [3H]MDL105,519 radioligand binding, rat cerebral cortex membranes. Particulars: tested at 100 μM, read-out: inhibition of specific [3H]MDL105,519 binding. The method, then: To measure the affinity of the compounds reported herein for D-Serine's binding site on the NMDA receptor (also known as the “Glycine site” or the “strychnine-insensitive glycine site”), a radioligand-binding assay was performed with membranes prepared from rat cerebral cortex. The radioactive ligand was [3H]MDL105,519. The amount of radioactivity displaced by the compounds was assessed by scintillation counting. Non-specific binding is accounted for in the presence of 1 mM Glycine. Affinities are calculated from the values of % inhibition of specific [3H]MDL105,519 binding by the test compounds.

Series [3] can be described thus: Rat brain uptake, left carotid artery perfusion. Format: in vivo. Particulars: 30 seconds perfusion in phosphate buffered saline pH 7.4; N of 4 rats. An excerpt:
Experiments that evaluate the rat brain penetration of test compounds use a perfusion system where the left carotid artery is cannulated and the branch arteries are tied off. The test compound plus internal controls are perfused for 30 seconds into the left hemisphere in phosphate buffered saline at pH 7.4. The internal controls are atenolol (with low brain uptake) and antipyrine (with high brain uptake). After a 30 second washout with perfusate, the brain is removed surgically. The left hemisphere is homogenized; test compounds (plus internal controls) are extracted from brain homogenate, and analyzed using LC/MS/MS to determine the concentration of test compound and internal controls in the brain.

Purified pig DAAO, sequence (P00371 whole entry): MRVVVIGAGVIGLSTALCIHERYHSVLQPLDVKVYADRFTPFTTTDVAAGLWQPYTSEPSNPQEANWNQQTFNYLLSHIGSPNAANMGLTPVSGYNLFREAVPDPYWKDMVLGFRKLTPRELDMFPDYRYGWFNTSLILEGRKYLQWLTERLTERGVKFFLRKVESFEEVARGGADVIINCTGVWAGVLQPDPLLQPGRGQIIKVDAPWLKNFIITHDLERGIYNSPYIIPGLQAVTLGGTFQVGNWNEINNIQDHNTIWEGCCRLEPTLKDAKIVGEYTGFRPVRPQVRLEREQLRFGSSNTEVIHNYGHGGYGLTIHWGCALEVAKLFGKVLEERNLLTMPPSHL

Broadly, the IC50 is the concentration needed to halve the response being measured. `Oc1noc2cc(Br)c(Br)cc12`: in series [1], the IC50 is below 0.1 µM. The same measure, in the same setting: next, `Cc1cccc2c(O)noc12`: above 100 µM. On the same count and under the same terms, the value for `Oc1noc2cc(Cl)ccc12` [drawing 38] was below 0.1 µM; that for `Oc1noc2c(Cl)cccc12` was above 100 µM. In general, inhibition refers to how much of the control response was suppressed. With `Oc1noc2cc(Cl)ccc12` [drawing 47], the inhibition at 100 µM in series [2] is below 10%.

On to `COc1cccc2onc(O)c12`, for which the IC50 in series [1] is below 100 µM.

For the compound `Oc1noc2c(F)cccc12`, the half-inhibitory concentration (IC50) in series [1] was below 100 µM. The same measure, in the same setting: the value for `Oc1noc2ccc(I)cc12` was below 10 µM; that for `Oc1noc2cc(Br)ccc12` was below 1 µM; that for `Cc1cc2onc(O)c2cc1Cl` was below 0.1 µM.

For the compound `Oc1noc2ccc(Br)cc12`, the half-inhibitory concentration (IC50) in series [1] was below 1 µM. Same read-out and setting: next, `Oc1noc2cc(F)ccc12`: below 1 µM; `Oc1noc2ccc(F)cc12`: below 1 µM. Consider `Cc1ccc2c(O)noc2c1` [drawing 48], for which, in series [3], the “Rat Brain Uptake Rate” value is reported as 199 pmol/g brain/sec. As to `COc1cccc2c(O)noc12`, in series [1], the IC50 was below 100 µM. Regarding `Cc1ccc2onc(O)c2c1`, the half-inhibitory concentration (IC50) in series [1] was below 10 µM. Consider `Oc1noc2cc(Cl)c(Br)cc12`, for which, in series [1], the IC50 was below 0.1 µM. The same measure, in the same setting: the value for `Oc1noc2cccc(F)c12` was below 10 µM. On the same count and under the same terms, the value for `Oc1ccc2onc(O)c2c1` was above 100 µM. Turning to `O=C(O)c1cc2ccccc2[nH]1` [INDOLE-2-CARBOXYLIC ACID, reference compound], in series [2], the inhibition at 100 µM amounted to 77%. In addition, the IC50 in series [1] was below 10 µM. Turning to `Cc1cc2onc(O)c2cc1I`, the IC50 in series [1] is below 0.1 µM. In the case of `O=C(Nc1ccc2c(O)noc2c1)OCc1ccccc1`, the IC50 in series [1] is above 100 µM. On to `Oc1noc2cc(Br)c(Cl)cc12`, for which the IC50 in series [1] is below 0.1 µM. Turning to `Oc1noc2ccc(OCc3ccccc3)cc12`, the IC50 in series [1] was below 10 µM. Still for that read-out and setting: the value for `Oc1noc2cc(Cl)c(Cl)cc12` was below 0.1 µM; that for `Oc1ccc2c(O)noc2c1` was below 10 µM; that for `Oc1noc2cc(OCc3ccccc3)ccc12` was above 100 µM. The same measure, in the same setting: the value for `O=C(O)c1ccc[nH]1` [PYRROLE-2-CARBOXYLIC ACID, reference compound] was below 10 µM.

`Oc1noc2ccc(CCc3ccccc3)cc12`: the IC50 in series [1] was below 100 µM.

Take `Oc1noc2ccc(Cl)cc12`: in series [1], the IC50 is below 1 µM. Still for that read-out and setting: the value for `Oc1noc2c(O)cccc12` was below 100 µM; that for `Cc1cc2onc(O)c2cc1Br` was below 0.1 µM; that for `Oc1cccc2onc(O)c12` was above 100 µM. As to `COc1ccc2onc(O)c2c1`, the IC50 in series [1] was below 10 µM. In the case of `Oc1noc2ccccc12`, the half-inhibitory concentration (IC50) in series [1] was below 1 µM.

Take `Oc1noc2cc(Cl)ccc12` [drawing 49]: the “Rat Brain Uptake Rate” value in series [3] turned out to be 162 pmol/g brain/sec. On to `O=C(Nc1ccc2onc(O)c2c1)OCc1ccccc1`, for which the half-inhibitory concentration (IC50) in series [1] was above 100 µM.

As for `COc1ccc2c(O)noc2c1`, the IC50 in series [1] is below 10 µM.

For the compound `Cc1ccc2c(O)noc2c1` [drawing 22], in series [1], the IC50 was below 1 µM.

As to `N#Cc1ccc2onc(O)c2c1`, the 50% inhibitory concentration (IC50) in series [1] is below 100 µM.
